Test results reported in patent US20090324616A1, “DIFFERENTIAL CYTOKINE EXPRESSION IN HUMAN CANCER” (priority 2006, published 2009).

How the values were obtained:
[1] = test system: primary colon cancer cells; test: Primary colon cancer cell viability (MTS), combination with oxaliplatin; format: cell-based; settings: 10 μg pre-treatment 24 hrs, then 100 μM oxaliplatin 24 hrs; FIG. 11C
Method: On primary colon cancer cells the IL4R-Fc and IL4R-IL13R-Fc constructs were tested in combination with oxaliplatin treatment. Primary colon cancer cells pre-treated with PBS (w/o) or 10 μg of IL4R-Fc, IL4R-IL13R-Fc or anti IL4-antibody for 24 hrs and successively exposed for another 24 hrs to 100 μM oxaliplatin. The graphs show the percentage of cell viability measured by MTS analysis (CellTiter 96, Aquos, Promega).

breast cancer stem cells = test: Apoptosis of breast cancer spheres, combination with doxorubicin; format: cell-based; settings: 10 μg pre-treatment 24 hrs, then 5 μM doxorubicin 24 hrs; for sensitisation for doxorubicin induced apoptosis compared with IL-4 specific antibody (positive control): FIG. 11B; for amount of apoptotic breast cancer stem cells: compared with Doxorubicin alone, FIG. 11A
Method: To test for the ability of IL4R-Fc and IL4R-IL13R-Fc to induce apoptosis, both proteins were added to the growth medium of breast cancer stem cells either alone or in combination with doxorubicin. […] The cells were stained with orange acridine/ethidium bromide (red: dead cells; green: viable cells).

human Interleukin4 (IL4) = target: T1, human Interleukin4 (IL4) (Homo sapiens, UniProt P05112); test: IL-4-pull down assay; format: binding; settings: 4 μg protein immobilized to Streptactin Sepharose, 400 ng IL4, 60 min; FIG. 10
T1 sequence (P05112 25-153): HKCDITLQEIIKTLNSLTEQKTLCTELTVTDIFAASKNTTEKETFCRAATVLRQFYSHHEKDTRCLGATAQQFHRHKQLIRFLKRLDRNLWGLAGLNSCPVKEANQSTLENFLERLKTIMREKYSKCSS
Method: To test for specific IL-4 binding of IL4R-Fc and IL4R-IL13R-Fc, 4 μg of both proteins, respectively, were immobilized to Streptactin Sepharose via their Strep-Tag. The immobilized proteins were subsequently incubated for 60 min with 400 ng of recombinantly expressed human Interleukin4 (IL4) in a total volume of 400 μl phosphate buffered saline. Subsequently the beads were washed and bound proteins were specifically eluted with desthiobiotin in a total volume of 40 μl elution buffer. Eluted proteins were finally analysed via SDS-PAGE and Silver staining.

colon CSC = test: Viability of colon CSC spheroids exposed to drugs; format: cell-based, human; settings: cisplatinum 300 ng/ml, oxaliplatin 100 μM, TRAIL 200 ng/ml, FIG. 6a
Method: (§1) Survival and death assays. To evaluate apoptotic events the DNA staining and flow cytometry analysis were performed. The percentage of hypodiploid nuclei was evaluated as described in Stassi et al., Cancer Res. 2003, 63 (20):6784-90. Alternatively, human purified cancer cells were plated in 96-well plates in triplicate at 15,000 cells/well and cultured. The number of viable cells was detected by CellTiter Aqueous Assay Kit (Promega Corporation, WI, USA) following the instructions of manufacturer. HuT78 cells plated at […] and treated with CD95-activating antibody CH11 (200 ng/ml) were used as a positive control for cell death measurement.
(§2) To investigate the sensitivity of colon CSC to chemotherapeutic drugs, the viability of colon CSC spheroids exposed to cisplatinum (300 ng/ml) and oxaliplatin (100 μM) was measured, doses equivalent to those reached during cancer treatment in vivo. In addition, colon CSC were treated with the apoptosis-inducing death ligand TRAIL (200 ng/ml).

[2] = test system: Primary (adherent) cells from human colon cancer specimens; test: Viability of primary (adherent) colon cancer cells exposed to drugs; format: cell-based; settings: cisplatinum 300 ng/ml, oxaliplatin 100 μM, TRAIL 200 ng/ml; FIG. 6a
Method: as §1, §2

[3] = test system: colon cancer generated by CSC; test: IL-4 neutralization in vivo, colon tumours generated by CSC; settings: oxaliplatin i.p. once a week for 4 weeks, combined with control IgG; mice
Description: Tumours were allowed to grow for 10 days (size ˜0.2 cm^3) and then treated intra-tumourally with neutralising antibodies against IL-4 or control IgG twice a week for 3 weeks.

[4] = test system: cFLIP, PED/PEA-15, Bcl-xL and Bcl-2 in normal colon, breast, gastric and lung cells; test: Anti-apoptotic protein expression in normal cells pre-incubated with IL-4; format: cell-based, human; settings: gastric and lung cells pre-incubated with IL-4, FIG. 3c
Method: (§3) Human primary cell purification. Normal and cancer tissues were digested for 2 hours with collagenase (1.5 mg/ml) (Gibco BRL., Grand Island, N.Y.) and hyaluronidase (20 μg/ml) (Sigma Chemical Co., St. Louis, Mo.) as previously described (1). Once digested, cells were maintained on plastic in DMEM medium (EuroClone Ltd., West York, UK) at 37° C. in a humidified atmosphere of 5% CO2. Following 12 further hours of culture, cancer cells were allowed to grow in monolayer for the immunocytochemistry or detached with trypsin+EDTA for functional, protein expression and gene transcript levels analyses. For colon and gastric cells culture, plastic was coated with[…] of collagen (Calbiochem GmbH, Darmstadt, Germany). […]
Protein isolation and western blotting analysis. […] Immunoblotting of Abs specific for actin (Ab-1, mouse IgM, Calbiochem, Darmstadt, Germany), CD95L (G2474, mouse IgG1, PharMingen, San Diego), CD95 (C-20, Santa Cruz Biotechnology), cFLIP (NF6 mouse IgG1, Alexis Biochemicals, Switzerland), PED/PEA-15 (rabbit IgG kindly provided by G. Condorelli), Bcl-2 (124, mouse IgG1, Upstate Biotechnology Inc.) and Bcl-XI (H-5, mouse IgG1, Santa Cruz Biotechnology) was detected by HRP-conjugated anti-mouse or anti-rabbit Abs (Amersham Biosciences UK Limited, England) and visualized with the chemiluminescence detection system (SuperSignal West Dura Extended duration Substrate, Pierce, Ill., USA). […]

[5] = test system: colon, breast, gastric and lung normal cells; test: Cell growth of normal cells exposed to IL-4; format: cell-based, human; settings: 20 ng/ml of IL-4; FIG. 3b
Method: as §3
Survival and death assays. […] The percentage of hypodiploid nuclei was evaluated as described in Stassi et al., Cancer Res. 2003, 63 (20):6784-90. […] The number of viable cells was detected by CellTiter Aqueous Assay Kit (Promega Corporation, WI, USA) following the instructions of manufacturer. […]
In order to investigate the possible involvement of IL-4 on tumour cell survival, colon, breast, gastric and lung normal cells were exposed to 20 ng/ml of IL-4 and analyzed for cell growth.

Row | Molecule | cell viability (MTS) in comparison with oxaliplatin treatment alone [1] | sensitisation for doxorubicin induced apoptosis compared with IL-4 specific antibody (positive control) (breast cancer stem cells) | amount of apoptotic breast cancer stem cells (breast cancer stem cells) | binding of human IL-4 (pull down, SDS-PAGE and Silver staining) (human Interleukin4 (IL4)) | sensitivity to drug-induced apoptosis (viability) (colon CSC) | sensitivity in vitro (viability) [2] | further results
1 | IL4R-IL13R-Fc: IL-4-Receptor-alpha extracellular domain fused to IL13-receptor alpha extracellular domain and Fc-part of human IGHG1, with Flexstreptag-II | reduced cell viability | in the same range | clearly increased | specific binding |  |  | 
2 | IL4R-Fc: shortened extracellular domain of IL-4-Receptor-alpha (aa1-aa224) fused to the Fc-part of human IGHG1, with Flexstreptag-II | reduced cell viability | in the same range | clearly increased | specific binding |  |  | 
3 | TRAIL |  |  |  |  | significantly resistant | some sensitivity | 
4 | N.N.[Cl][Pt][Cl] [cisplatinum] |  |  |  |  | significantly resistant | some sensitivity | 
5 | O=C1[O][Pt]2([NH][C@@H]3CCCC[C@H]3[NH]2)[O]C1=O [oxaliplatin] |  |  |  |  | significantly resistant | some sensitivity | tumour size [3]: reduced tumour size
6 | IL-4: human recombinant IL-4 (Euroclone), used at 20 ng/ml (protein) HKCDITLQEIIKTLNSLTEQKTLCTELTVTDIFAASKNTTEKETFCRAATVLRQFYSHHEKDTRCLGATAQQFHRHKQLIRFLKRLDRNLWGLAGLNSCPVKEANQSTLENFLERLKTIMREKYSKCSS |  |  |  |  |  |  | protein levels of cFLIP, PED/PEA-15, Bcl-xL and Bcl-2 [4]: increased; growth rate of colon, breast and lung normal cells [5]: significantly increased
